Columns and labels:
[1] = target: Co-type nitrile hydratase from Pseudonocardia thermophile JCM 3095 (PtNHase) (Pseudonocardia thermophila, UniProt Q7SID2+Q7SID3); details: previously reported value (ref. 21); cited from earlier work
[2] = target: Fe-type nitrile hydratase from Comamonas testosteroni Ni1 (CtNHase) (Comamonas testosteroni, UniProt J9PBS0+J9PBS1); details: previously reported value (ref. 34); cited from earlier work
[3] = substrate: N#Cc1ccccc1; experiment: purified protein, by the assay type; details: other: benzonitrile hydrolysis, solution, pH 7.6, 25° C.

Molecule: N#Cc1ccccc1 [benzonitrile]
- Km [1]: 19 µM
- kcat [1]: 120 s⁻¹

Molecule: N#CCCCCC(=O)O [cyanovaleric acid]
- Km [2]: 3200 µM

B1: Co-type nitrile hydratase from Pseudonocardia thermophile JCM 3095 (PtNHase) (Pseudonocardia thermophila) (protein)
chain 1: MTENILRKSDEEIQKEITARVKALESMLIEQGILTTSMIDRMAEIYENEVGPHLGAKVVVKAWTDPEFKKRLLADGTEACKELGIGGLQGEDMMWVENTDEVHHVVVCTLCSCYPWPVLGLPPNWFKEPQYRSRVVREPRQLLKEEFGFEVPPSKEIKVWDSSSEMRFVVLPQRPAGTDGWSEEELATLVTRESMIGVEPAKAV
chain 2: MNGVYDVGGTDGLGPINRPADEPVFRAEWEKVAFAMFPATFRAGFMGLDEFRFGIEQMNPAEYLESPYYWHWIRTYIHHGVRTGKIDLEELERRTQYYRENPDAPLPEHEQKPELIEFVNQAVYGGLPASREVDRPPKFKEGDVVRFSTASPKGHARRARYVRGKTGTVVKHHGAYIYPDTAGNGLGECPEHLYTVRFTAQELWGPEGDPNSSVYYDCWEPYIELVDTKAAAA
- Km [3]: 18 µM
- kcat [3]: 123 s⁻¹
